In PubChem BioAssay AID296 (DTP/NCI, 2004) one finds T/C data, which are given here for 22 molecules.

“And” between values parts separate entries of the source, which are not always exact repeats. Equal values may be shown once. Records with an inconclusive call do not appear.

For this experiment, the system named is MX-1 breast xenograft, nude mice, tumor weight T/C. The experiment is described as follows: NCI In Vivo Anticancer Drug Screen. Data for tumor model Human Mammary Carcinoma MX-1 Xenograft (intrarenal inoculation) in NU/NU Swiss (nude) mice. The conditions noted are these: endpoint: mean tumor weight change, higher = larger tumour. In short, it runs like this: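 Compound dosed to mice with transplantable tumor; vehicle group as control. Endpoint survival or tumour size, reported as T/C.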
For orientation: A xenograft is tissue or cells of one species grown in another, often human tumour cells in immunodeficient mice.

The mark [1] stands for this setting: dose: 100.0 mg/kg/injection, schedule: Q04DX003 (sc), vehicle: saline with Tween-80.
The mark [2] stands for this setting: dose: 200.0 mg/kg/injection, schedule: Q04DX003 (sc), vehicle: saline with Tween-80.
The mark [3] stands for this setting: dose: 400.0 mg/kg/injection, schedule: Q04DX003 (sc), vehicle: saline with Tween-80.
[4] abbreviates: dose: 800.0 mg/kg/injection, schedule: Q04DX003 (sc), vehicle: saline with Tween-80.
Setting [5] is: dose: 200.0 mg/kg/injection, schedule: Q01DX010 (sc), vehicle: saline with Tween-80.
The mark [6] stands for this setting: dose: 300.0 mg/kg/injection, schedule: Q04DX003 (sc), vehicle: saline with Tween-80.
[7] abbreviates: dose: 600.0 mg/kg/injection, schedule: Q04DX003 (sc), vehicle: saline with Tween-80.
[8] abbreviates: dose: 1200.0 mg/kg/injection, schedule: Q04DX003 (sc), vehicle: saline with Tween-80.
Where [9] appears, read: dose: 300.0 mg/kg/injection, schedule: Q04DX003 (sc), vehicle: Klucel (hydroxypropylcellulose) (HPC).
[10] abbreviates: dose: 600.0 mg/kg/injection, schedule: Q04DX003 (sc), vehicle: Klucel (hydroxypropylcellulose) (HPC).
[11] abbreviates: dose: 1200.0 mg/kg/injection, schedule: Q04DX003 (sc), vehicle: Klucel (hydroxypropylcellulose) (HPC).

`NC(Cc1ccc(N(CCCl)CCCl)cc1)C(=O)O` (stereo unspecified): the T/C is -99 % of control (dose: 10.0 mg/kg/injection, schedule: Q04DX003 (sc), vehicle: Klucel (hydroxypropylcellulose) (HPC)); -100 % of control (dose: 20.0 mg/kg/injection, schedule: Q04DX003 (sc), vehicle: Klucel (hydroxypropylcellulose) (HPC)); -99 % of control (dose: 40.0 mg/kg/injection, schedule: Q04DX003 (sc), vehicle: Klucel (hydroxypropylcellulose) (HPC)).

As to `c1ccc([P+](c2ccccc2)(c2ccccc2)c2ccccc2)cc1`, the T/C was 80 % of control (dose: 5.0 mg/kg/injection, schedule: Q04DX003 (sc), vehicle: saline); 69 % of control (dose: 10.0 mg/kg/injection, schedule: Q04DX003 (sc), vehicle: saline); 61 % of control (dose: 20.0 mg/kg/injection, schedule: Q04DX003 (sc), vehicle: saline).

In the case of `CCOC(=O)C(N)C[S][Sn]([CH3])([CH3])[Cl]` (stereo unspecified), the T/C (dose: 75.0 mg/kg/injection, schedule: Q04DX003 (sc), vehicle: saline) is 155 % of control.

Turning to `CCCCCn1c(C)cc(/C=C\c2ccc3cc(C)ccc3[n+]2C)c1C`, the T/C (dose: 0.38 mg/kg/injection, schedule: Q04DX003 (sc), vehicle: Klucel (hydroxypropylcellulose) (HPC)) is 174 % of control; the T/C (dose: 0.75 mg/kg/injection, schedule: Q04DX003 (sc), vehicle: Klucel (hydroxypropylcellulose) (HPC)) is 62 % of control; the T/C (dose: 1.5 mg/kg/injection, schedule: Q04DX003 (sc), vehicle: Klucel (hydroxypropylcellulose) (HPC)) is 109 % of control; the T/C (dose: 3.0 mg/kg/injection, schedule: Q04DX003 (sc), vehicle: Klucel (hydroxypropylcellulose) (HPC)) is 74 % of control.

Consider `Nc1nc2ccc(NCc3ccc(C(=O)NC(CCC(=O)O)C(=O)O)cc3)cc2c(=O)[nH]1` (stereo unspecified), for which the T/C is, setting by setting: under setting [1], 93 % of control; under setting [2], 93 % of control; under setting [3], 90 % of control; under setting [4], 23 % of control.

`ClC1=C(Cl)C(Cl)=C(Cl)C1=Cc1ccccc1`: the T/C is, setting by setting: under setting [1], 98 % of control; under setting [2], 119 % of control; under setting [3], 98 % of control; under setting [4], 110 % of control.

Consider `COC1CC(C)C(OC)c2cc(O)cc(c2O)NC(=O)/C(C)=C/C=C\C(C)C(OC(N)=O)/C(C)=C\C(C)C1OC` (stereo unspecified), for which the T/C (dose: 12.5 mg/kg/injection, schedule: Q04DX003 (sc), vehicle: saline + alcohol) is 103 % of control; the T/C (dose: 25.0 mg/kg/injection, schedule: Q04DX003 (sc), vehicle: saline + alcohol) was 104 % of control; the T/C (dose: 50.0 mg/kg/injection, schedule: Q04DX003 (sc), vehicle: saline + alcohol) is 90 % of control; the T/C (dose: 100.0 mg/kg/injection, schedule: Q04DX003 (sc), vehicle: saline + alcohol) was 109 % of control.

Consider `CC(=O)NCCCCCCNC(C)=O`, for which the T/C (dose: 50.0 mg/kg/injection, schedule: Q01DX010 (sc), vehicle: saline) is 163 % of control; the T/C (dose: 100.0 mg/kg/injection, schedule: Q01DX010 (sc), vehicle: saline) is 124 % of control; the T/C (dose: 200.0 mg/kg/injection, schedule: Q01DX010 (sc), vehicle: saline) is 103 % of control and 111 % of control; the T/C (dose: 400.0 mg/kg/injection, schedule: Q01DX010 (sc), vehicle: saline) was 84 % of control; the T/C (dose: 800.0 mg/kg/injection, schedule: Q01DX010 (sc), vehicle: saline) is 88 % of control; the T/C (dose: 1600.0 mg/kg/injection, schedule: Q01DX010 (sc), vehicle: saline) was 78 % of control and 103 % of control. The T/C by setting is: (dose: 3200.0 mg/kg/injection, schedule: Q01DX010 (sc), vehicle: saline) 104 % of control; (dose: 6400.0 mg/kg/injection, schedule: Q01DX010 (sc), vehicle: saline) 58 % of control.

Regarding `CCCCc1ccc2nc(NC(=O)OC)[nH]c2c1`, the T/C under setting [5] is 109 % of control; the T/C (dose: 400.0 mg/kg/injection, schedule: Q01DX010 (sc), vehicle: saline with Tween-80) is 69 % of control; the T/C (dose: 800.0 mg/kg/injection, schedule: Q01DX010 (sc), vehicle: saline with Tween-80) was 48 % of control.

As for `CC(=O)OC(C)C1C2=C(C(=O)CC1(C)O)C(=O)c1c(ccc(-c3ccc4c(c3O)C(=O)C3=C(C4=O)C(C(C)OC(C)=O)C(C)(O)CC3=O)c1O)C2=O` (stereo unspecified), the T/C is 33 % of control (dose: 7.5 mg/kg/injection, schedule: Q04DX003 (sc), vehicle: saline with Tween-80); 98 % of control (dose: 30.0 mg/kg/injection, schedule: Q04DX003 (sc), vehicle: saline with Tween-80); 96 % of control (dose: 60.0 mg/kg/injection, schedule: Q04DX003 (sc), vehicle: saline with Tween-80).

As to `CCC(=O)Sc1ccccc1C(=O)Nc1ccc(Cl)cc1`, the T/C by setting is: under setting [6], 63 % of control; under setting [7], 75 % of control; under setting [8], 58 % of control; (dose: 2400.0 mg/kg/injection, schedule: Q04DX003 (sc), vehicle: saline with Tween-80) 69 % of control.

As for `C=C1C(=O)OC2CC(C)C3C4OC4C(O)C3(C)C(O)C12` (stereo unspecified), the T/C under setting [1] was 113 % of control, the T/C under setting [2] was 116 % of control and the T/C under setting [3] is 101 % of control.

Turning to `CSc1cc(C)[o+]c(C)c1`, the T/C (dose: 25.0 mg/kg/injection, schedule: Q04DX003 (sc), vehicle: Klucel (hydroxypropylcellulose) (HPC)) is 76 % of control; the T/C (dose: 50.0 mg/kg/injection, schedule: Q04DX003 (sc), vehicle: Klucel (hydroxypropylcellulose) (HPC)) is 68 % of control; the T/C (dose: 100.0 mg/kg/injection, schedule: Q04DX003 (sc), vehicle: Klucel (hydroxypropylcellulose) (HPC)) was 54 % of control; the T/C (dose: 200.0 mg/kg/injection, schedule: Q04DX003 (sc), vehicle: Klucel (hydroxypropylcellulose) (HPC)) is 36 % of control.

As to `O=C(O)C1CC(c2ccccc2)=NN1c1ccccc1` (stereo unspecified), the T/C (dose: 200.0 mg/kg/injection, schedule: Q04DX003 (sc), vehicle: water) is 72 % of control and the T/C (dose: 400.0 mg/kg/injection, schedule: Q04DX003 (sc), vehicle: water) is 72 % of control.

Regarding `CCNC(C)(C)C(SSS)c1ccco1` (stereo unspecified), the T/C (dose: 150.0 mg/kg/injection, schedule: Q04DX003 (sc), vehicle: Klucel (hydroxypropylcellulose) (HPC)) was 102 % of control; the T/C under setting [9] is 97 % of control; the T/C under setting [10] is 80 % of control; the T/C under setting [11] was 86 % of control.

Regarding `O=C1C=CC(n2cc(F)c(=O)[nH]c2=O)O1` (stereo unspecified), the T/C (dose: 75.0 mg/kg/injection, schedule: Q04DX003 (sc), vehicle: Klucel (hydroxypropylcellulose) (HPC)) is 104 % of control.

Consider `Cc1ccc2nc(-c3ccc4nc(-c5ccc(N=Nc6ccc(-c7nc8ccc(-c9nc%10ccc(C)c(S(=O)(=O)O)c%10s9)cc8s7)cc6)cc5)sc4c3)sc2c1S(=O)(=O)O`, for which the T/C reads like this: (dose: 200.0 mg/kg/injection, schedule: Q04DX003 (sc), vehicle: suspension in saline) 90 % of control; (dose: 400.0 mg/kg/injection, schedule: Q04DX003 (sc), vehicle: suspension in saline) 90 % of control.

`CCOC(=O)C(CC(C)C)NC(=O)C(N)Cc1ccc(N(CCCl)CCCl)cc1` (stereo unspecified): under “dose: 60.0 mg/kg/injection, schedule: Q04DX003 (sc), vehicle: water”, the T/C is -100 % of control.

As for `CC(=O)Nc1ccc(C(=O)C=O)cc1`, the T/C under setting [5] is 55 % of control.

With `[O-][n+]1c(CN2CCCCC2)nc2cccc3c2c1-c1ccccc1-3`, the T/C by setting is: under setting [9], 94 % of control; under setting [10], 102 % of control; under setting [11], 105 % of control; (dose: 2400.0 mg/kg/injection, schedule: Q04DX003 (sc), vehicle: Klucel (hydroxypropylcellulose) (HPC)) 70 % of control.

For the molecule `CC1=C(C)C(=O)O[C@@H]([C@](C)(O)[C@]2(O)CC[C@@]3(O)[C@@H]4C[C@H]5O[C@]56CC=CC(=O)[C@]6(C)[C@H]4CC[C@]23C)C1`, the T/C is, setting by setting: (dose: 75.0 mg/kg/injection, schedule: Q04DX003 (sc), vehicle: suspension in saline) 112 % of control; (dose: 150.0 mg/kg/injection, schedule: Q04DX003 (sc), vehicle: suspension in saline) 83 % of control; (dose: 300.0 mg/kg/injection, schedule: Q04DX003 (sc), vehicle: suspension in saline) 83 % of control; (dose: 600.0 mg/kg/injection, schedule: Q04DX003 (sc), vehicle: suspension in saline) 95 % of control.

With `CNC(=O)n1c(N)nc(-c2ccccc2)c1-c1ccccc1`, the T/C by setting is: (dose: 150.0 mg/kg/injection, schedule: Q04DX003 (sc), vehicle: saline with Tween-80) 105 % of control; under setting [6], 62 % of control; under setting [7], 62 % of control; under setting [8], 68 % of control.
